From patent US20250353891A1 (MEDIMMUNE LIMITED, priority 2022, published 2025)
Where “and” joins values, the source holds several entries; their conditions need not be identical. Equal entries are not always repeated. Starred links: 1 amine or outer side, 2 acyl side, 3 side chain; linkers in the order of their positions; H or OH if unused. Non-standard residues stand in square brackets, D forms with d. Residues, ends and D or L forms follow the SMILES beside them. Groups on a side chain read outwards from the residue. *: point of attachment. C18 diacid = O=C(O)CCCCCCCCCCCCCCCCC(=O)*; γGlu = O=C(O)[C@H](CCC(=O)[*:2])N[*:1]; αMeF = C[C@](N)(Cc1ccccc1)C(=O)O; AEEA = NCCOCCOCC(=O)O; Aib = CC(C)(N)C(=O)O

Legend:
[1] = biological target: human GLP-1 receptor (hGLP-1R) (Homo sapiens, UniProt P43220); experiment: cAMP production (HTRF) in CHO cells expressing hGLP-1R; assay type: cell-based; design: expressed in transfected cells; details: for EC50: Table 6, peptides modified at position 17, cAMP in CHO hGLP-1R cells, geometric mean, read-out: hGLP-1R EC50; for % Relative Potency Ratio: Table 6, % GLP-1R activity relative to GLP-1 / % GlucR activity relative to glucagon
Summary of the method: (§1)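 Potency values represent EC50 from 4-parameter logistic curves of HTRF % Delta F signal. Receptor-expressing CHO cells (hGCGR 2×10^5 cells/mL, hGLP-1R 1×10^5 cells/mL) were exposed for 30 min at room temperature before two-step cAMP detection.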

[2] = biological target: human glucagon receptor (hGCGR) (Homo sapiens, UniProt P47871); experiment: cAMP production (HTRF) in CHO cells expressing hGCGR; assay type: cell-based; design: expressed in transfected cells; details: Table 6, peptides modified at position 17; cAMP in CHO hGCGR cells; geometric mean; read-out: hGluc-R EC50
Summary of the method: as §1

Chain of human GLP-1 receptor (hGLP-1R) (P43220 24-463): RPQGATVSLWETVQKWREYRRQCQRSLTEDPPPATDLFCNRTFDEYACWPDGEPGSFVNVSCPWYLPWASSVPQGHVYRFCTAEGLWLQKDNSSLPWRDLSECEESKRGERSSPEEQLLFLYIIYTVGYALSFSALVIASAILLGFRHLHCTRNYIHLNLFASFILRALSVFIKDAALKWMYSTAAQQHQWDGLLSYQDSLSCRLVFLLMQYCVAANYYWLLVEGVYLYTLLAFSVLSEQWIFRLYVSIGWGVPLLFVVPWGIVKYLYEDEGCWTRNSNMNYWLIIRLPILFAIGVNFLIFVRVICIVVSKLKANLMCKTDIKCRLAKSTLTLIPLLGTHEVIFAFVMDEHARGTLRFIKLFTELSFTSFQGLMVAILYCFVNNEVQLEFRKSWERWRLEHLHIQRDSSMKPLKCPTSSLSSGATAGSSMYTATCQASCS
Chain of human glucagon receptor (hGCGR) (P47871 26-477): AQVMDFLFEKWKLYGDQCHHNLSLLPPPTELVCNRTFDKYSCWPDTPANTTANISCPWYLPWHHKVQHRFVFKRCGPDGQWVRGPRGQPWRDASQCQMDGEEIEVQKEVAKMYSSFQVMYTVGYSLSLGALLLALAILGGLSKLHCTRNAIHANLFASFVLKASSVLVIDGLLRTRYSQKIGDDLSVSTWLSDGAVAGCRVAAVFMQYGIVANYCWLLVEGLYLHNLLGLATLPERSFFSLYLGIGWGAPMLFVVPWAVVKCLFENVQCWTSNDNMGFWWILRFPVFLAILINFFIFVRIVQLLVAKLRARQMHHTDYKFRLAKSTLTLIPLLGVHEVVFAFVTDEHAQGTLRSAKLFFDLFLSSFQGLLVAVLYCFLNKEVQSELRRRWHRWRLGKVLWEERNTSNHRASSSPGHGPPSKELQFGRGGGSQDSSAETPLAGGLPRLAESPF

Row | SMILES | EC50 [1] | % Relative Potency Ratio [1] | EC50 [2]
1 | CC(C)C[C@H](NC(=O)[C@H](Cc1c[nH]c2ccccc12)NC(=O)[C@H](CCCNC(=N)N)NC(=O)[C@@H](NC(=O)[C@H](Cc1ccccc1)NC(=O)[C@H](CC(=O)O)NC(=O)[C@H](CCC(N)=O)NC(=O)[C@H](C)NC(=O)[C@H](CCCNC(=N)N)NC(=O)[C@H](CCCCNC(=O)COCCOCCNC(=O)COCCOCCNC(=O)CC[C@H](NC(=O)CCCCCCCCCCCCCCCCC(=O)O)C(=O)O)NC(=O)[C@H](CO)NC(=O)[C@H](CCC(=O)O)NC(=O)[C@H](CC(C)C)NC(=O)[C@](C)(Cc1ccccc1)NC(=O)[C@H](CCCCN)NC(=O)[C@H](CO)NC(=O)[C@@H](NC(=O)[C@H](CC(=O)O)NC(=O)[C@H](CO)NC(=O)[C@@H](NC(=O)[C@H](Cc1ccccc1)NC(=O)[C@@H](NC(=O)CNC(=O)[C@H](CCC(N)=O)NC(=O)C(C)(C)NC(=O)[C@@H](N)Cc1c[nH]cn1)[C@@H](C)O)[C@@H](C)O)C(C)C)C(C)C)C(=O)N[C@@H](CC(C)C)C(=O)N[C@@H](CCC(=O)O)C(=O)NC(C)(C)C(=O)NCC(=O)O [Peptide 160] (H-H[Aib]QGTFTSDVSK[αMeF]LESK([AEEA-AEEA-γGlu-C18 diacid])RAQDFVRWLLE[Aib]G-OH) | 0.0552 nM | 14.9 | 0.417 nM
2 | CC(C)C[C@H](NC(=O)[C@H](Cc1c[nH]c2ccccc12)NC(=O)[C@H](C)NC(=O)[C@@H](NC(=O)[C@H](Cc1ccccc1)NC(=O)[C@H](CC(=O)O)NC(=O)[C@H](CCCNC(=N)N)NC(=O)[C@H](C)NC(=O)[C@H](CCCNC(=N)N)NC(=O)[C@H](CCCCNC(=O)COCCOCCNC(=O)COCCOCCNC(=O)CC[C@H](NC(=O)CCCCCCCCCCCCCCCCC(=O)O)C(=O)O)NC(=O)[C@H](C)NC(=O)[C@H](CCC(=O)O)NC(=O)[C@H](CC(C)C)NC(=O)[C@](C)(Cc1ccccc1)NC(=O)[C@H](CCCCN)NC(=O)[C@H](CO)NC(=O)[C@@H](NC(=O)[C@H](CC(=O)O)NC(=O)[C@H](CO)NC(=O)[C@@H](NC(=O)[C@H](Cc1ccccc1)NC(=O)[C@@H](NC(=O)CNC(=O)[C@H](CCC(N)=O)NC(=O)C(C)(C)NC(=O)[C@@H](N)Cc1c[nH]cn1)[C@@H](C)O)[C@@H](C)O)C(C)C)C(C)C)C(=O)N[C@@H](CC(C)C)C(=O)N[C@@H](CCC(=O)O)C(=O)NC(C)(C)C(=O)NCC(=O)O [Peptide 161] (H-H[Aib]QGTFTSDVSK[αMeF]LEAK([AEEA-AEEA-γGlu-C18 diacid])RARDFVAWLLE[Aib]G-OH) | 0.0172 nM and 0.0509 nM | 21.6 and 40.0 | 0.188 nM and 1.03 nM
3 | CC[C@H](C)[C@H](NC(=O)[C@H](Cc1c[nH]c2ccccc12)NC(=O)[C@H](CCCNC(=N)N)NC(=O)[C@@H](NC(=O)[C@H](Cc1ccccc1)NC(=O)[C@H](CC(=O)O)NC(=O)[C@H](CCC(N)=O)NC(=O)[C@H](C)NC(=O)[C@H](CCCNC(=N)N)NC(=O)[C@H](CCCCNC(=O)COCCOCCNC(=O)COCCOCCNC(=O)CC[C@H](NC(=O)CCCCCCCCCCCCCCCCC(=O)O)C(=O)O)NC(=O)[C@H](CO)NC(=O)[C@H](CC(=O)O)NC(=O)[C@H](CC(C)C)NC(=O)[C@](C)(Cc1ccccc1)NC(=O)[C@H](CCCCN)NC(=O)[C@H](CO)NC(=O)[C@@H](NC(=O)[C@H](CC(=O)O)NC(=O)[C@H](CO)NC(=O)[C@@H](NC(=O)[C@H](Cc1ccccc1)NC(=O)[C@@H](NC(=O)CNC(=O)[C@H](CCC(N)=O)NC(=O)C(C)(C)NC(=O)[C@@H](N)Cc1c[nH]cn1)[C@@H](C)O)[C@@H](C)O)C(C)C)C(C)C)C(=O)N[C@@H](C)C(=O)NC(C)(C)C(=O)N[C@H](C(=O)N[C@@H](CCC(=O)O)C(=O)O)[C@@H](C)O [Peptide 162] (H-H[Aib]QGTFTSDVSK[αMeF]LDSK([AEEA-AEEA-γGlu-C18 diacid])RAQDFVRWIA[Aib]TE-OH; N-terminus assumed) | 0.0596 nM | 34.1 | 1.03 nM
4 | CC(C)C[C@H](NC(=O)[C@H](Cc1c[nH]c2ccccc12)NC(=O)[C@H](CCCNC(=N)N)NC(=O)[C@@H](NC(=O)[C@H](Cc1ccccc1)NC(=O)[C@H](CC(=O)O)NC(=O)[C@H](CCC(N)=O)NC(=O)[C@H](C)NC(=O)[C@H](CCCNC(=N)N)NC(=O)[C@H](CCCCNC(=O)COCCOCCNC(=O)COCCOCCNC(=O)CC[C@H](NC(=O)CCCCCCCCCCCCCCCCC(=O)O)C(=O)O)NC(=O)[C@H](CO)NC(=O)[C@H](CC(=O)O)NC(=O)[C@H](CC(C)C)NC(=O)[C@](C)(Cc1ccccc1)NC(=O)[C@H](CCCCN)NC(=O)[C@H](CO)NC(=O)[C@@H](NC(=O)[C@H](CC(=O)O)NC(=O)[C@H](CO)NC(=O)[C@@H](NC(=O)[C@H](Cc1ccccc1)NC(=O)[C@@H](NC(=O)CNC(=O)[C@H](CCC(N)=O)NC(=O)C(C)(C)NC(=O)[C@@H](N)Cc1c[nH]cn1)[C@@H](C)O)[C@@H](C)O)C(C)C)C(C)C)C(=O)N[C@@H](CC(C)C)C(=O)N[C@@H](CCC(=O)O)C(=O)NC(C)(C)C(=O)N[C@@H](C)C(=O)O [Peptide 163] (H-H[Aib]QGTFTSDVSK[αMeF]LDSK([AEEA-AEEA-γGlu-C18 diacid])RAQDFVRWLLE[Aib]A-OH; N-terminus assumed) | 0.0902 nM | 3.2 | 0.144 nM
5 | CC(C)C[C@H](NC(=O)[C@H](Cc1c[nH]c2ccccc12)NC(=O)[C@H](CCCNC(=N)N)NC(=O)[C@@H](NC(=O)[C@H](Cc1ccccc1)NC(=O)[C@H](CC(=O)O)NC(=O)[C@H](CCC(N)=O)NC(=O)[C@H](C)NC(=O)[C@H](CCCNC(=N)N)NC(=O)[C@H](CCCCNC(=O)COCCOCCNC(=O)COCCOCCNC(=O)CC[C@H](NC(=O)CCCCCCCCCCCCCCCCC(=O)O)C(=O)O)NC(=O)[C@H](CO)NC(=O)[C@H](CC(=O)O)NC(=O)[C@H](CC(C)C)NC(=O)[C@](C)(Cc1ccccc1)NC(=O)[C@H](CCCCN)NC(=O)[C@H](CO)NC(=O)[C@@H](NC(=O)[C@H](CC(=O)O)NC(=O)[C@H](CO)NC(=O)[C@@H](NC(=O)[C@H](Cc1ccccc1)NC(=O)[C@@H](NC(=O)CNC(=O)[C@H](CCC(N)=O)NC(=O)C(C)(C)NC(=O)[C@@H](N)Cc1c[nH]cn1)[C@@H](C)O)[C@@H](C)O)C(C)C)C(C)C)C(=O)N[C@H](C(=O)NC(C)(C)C(=O)N[C@H](C(=O)N[C@@H](CCC(=O)O)C(=O)O)[C@@H](C)O)C(C)C [Peptide 165] (H-H[Aib]QGTFTSDVSK[αMeF]LDSK([AEEA-AEEA-γGlu-C18 diacid])RAQDFVRWLV[Aib]TE-OH; N-terminus assumed) | 0.0509 nM | 40.0 | 1.03 nM
6 | CC(C)C[C@H](NC(=O)[C@H](Cc1c[nH]c2ccccc12)NC(=O)[C@H](CCCNC(=N)N)NC(=O)[C@@H](NC(=O)[C@H](Cc1ccccc1)NC(=O)[C@H](CC(=O)O)NC(=O)[C@H](CCCNC(=N)N)NC(=O)[C@H](C)NC(=O)[C@H](CCCNC(=N)N)NC(=O)[C@H](CCCCNC(=O)COCCOCCNC(=O)COCCOCCNC(=O)CC[C@H](NC(=O)CCCCCCCCCCCCCCCCC(=O)O)C(=O)O)NC(=O)[C@H](CO)NC(=O)[C@H](CC(=O)O)NC(=O)[C@H](CC(C)C)NC(=O)[C@](C)(Cc1ccccc1)NC(=O)[C@H](CCCCN)NC(=O)[C@H](CO)NC(=O)[C@@H](NC(=O)[C@H](CC(=O)O)NC(=O)[C@H](CO)NC(=O)[C@@H](NC(=O)[C@H](Cc1ccccc1)NC(=O)[C@@H](NC(=O)CNC(=O)[C@H](CCC(N)=O)NC(=O)C(C)(C)NC(=O)[C@@H](N)Cc1c[nH]cn1)[C@@H](C)O)[C@@H](C)O)C(C)C)C(C)C)C(=O)N[C@@H](CC(C)C)C(=O)NC(C)(C)C(=O)N[C@H](C(=O)N[C@@H](CCC(=O)O)C(=O)O)[C@@H](C)O [Peptide 166] (H-H[Aib]QGTFTSDVSK[αMeF]LDSK([AEEA-AEEA-γGlu-C18 diacid])RARDFVRWLL[Aib]TE-OH; N-terminus assumed) | 0.048 nM | 11.1 | 0.27 nM
7 | CC(C)C[C@H](NC(=O)[C@H](Cc1c[nH]c2ccccc12)NC(=O)[C@H](C)NC(=O)[C@@H](NC(=O)[C@H](Cc1ccccc1)NC(=O)[C@H](CC(=O)O)NC(=O)[C@H](CCCNC(=N)N)NC(=O)[C@H](C)NC(=O)[C@H](CCCNC(=N)N)NC(=O)[C@H](CCCCNC(=O)COCCOCCNC(=O)COCCOCCNC(=O)CC[C@H](NC(=O)CCCCCCCCCCCCCCCCC(=O)O)C(=O)O)NC(=O)[C@H](CO)NC(=O)[C@H](CC(=O)O)NC(=O)[C@H](CC(C)C)NC(=O)[C@](C)(Cc1ccccc1)NC(=O)[C@H](CCCCN)NC(=O)[C@H](CO)NC(=O)[C@@H](NC(=O)[C@H](CC(=O)O)NC(=O)[C@H](CO)NC(=O)[C@@H](NC(=O)[C@H](Cc1ccccc1)NC(=O)[C@@H](NC(=O)CNC(=O)[C@H](CCC(N)=O)NC(=O)C(C)(C)NC(=O)[C@@H](N)Cc1c[nH]cn1)[C@@H](C)O)[C@@H](C)O)C(C)C)C(C)C)C(=O)N[C@@H](CC(C)C)C(=O)NC(C)(C)C(=O)N[C@H](C(=O)N[C@@H](CCC(=O)O)C(=O)O)[C@@H](C)O [Peptide 167] (H-H[Aib]QGTFTSDVSK[αMeF]LDSK([AEEA-AEEA-γGlu-C18 diacid])RARDFVAWLL[Aib]TE-OH; N-terminus assumed) | 0.0768 nM | 8.0 | 0.311 nM
